Source: patent publication US6723742B2, “Substituted 3,5-diphenyl-1,2,4-triazoles and their use as pharmaceutical metal chelators” (Novartis AG., priority 1996, dated 2004)

system: Male Sprague-Dawley rats; assay: Test I: iron excretion induced in bile duct-cannulated rats (bile and urine iron, bathophenanthroline method); assay type: in vivo; details: bile duct-cannulated fasted rat; dose 100 mg/kg; bile and urine collected for 24 h
Method: Test I: Iron Excretion Induced by Compounds of Formula I or II [Method as Described in Bergeron et al., J. Med. Chem. 34:2072-2078 (1991)]
Male Sprague-Dawley rats averaging 400 g are housed in Nalgene plastic metabolic cages and are given free access to water. The animals are anesthetized with sodium pentobarbital (50 mg/kg), given ip. The bile duct is cannulated with 22 gauge PE 50 tubing which is inserted ca. 2 cm into the duct and tied firmly in place. A skin-tunneling needle is inserted from the shoulder area around the abdominal incision. The cannula is threaded through the needle until it emerges from the shoulder opening. The cannula is then passed from the animal to the swivel inside a metal torque-transmitting tether, which is attached to a rodent jacket. The cannula is directed from the animal to a Gilson microfraction collector by a fluid swivel mounted above the metabolic cage. This system allows the animal to move freely in the cage while continuous bile samples are being collected. Bile samples are collected in plastic disposable tubes at 3 h intervals for 24 h. Urine samples are collected in plastic disposable tubes for 24 h.
Compounds of formula I or II are prepared in 60 % water, 40 % Cremophor RH-40 (v/v).
All animals are fasted for 48 h before the administration of the compound of formula I or II and the fast is maintained throughout the course of the experiment.
The iron indicator solution, solution A, is prepared by diluting a stock aqueous solution of 0.134 mM mercaptoacetic acid and 1.9 mM bathophenanthrolinedisulfonic acid disodium salt with 5 parts water and 5 parts saturated aqueous sodium acetate. Solution B is prepared as above but without the bathophenanthroline.
An equal volume of a 10 % trichloroacetic acid solution in 3 M HCl (solution C) is added to a urine sample (2.5 ml), and the sample heated in a 65° C. bath for 4 h. After filtration through nylon filters, two 1 ml aliquots are removed. Solution A (5 ml) is added to the sample, and solution B (5 ml) is added to the blank. Bile samples are prepared as the urine samples; however, the volumes are reduced. Standard iron curves are generated with each assay. All samples are transferred to polystyrene cuvettes and the absorbance measured at 535 nm.
Compounds of formula I or II are effective in this assay when administered at a dose in the range of from 10 to 200 mg/kg, e.g. 100 to 150 mg/kg. The induced total iron excretion is in the range of about 10 to 1500 μg Fe/kg body weight, e.g. 90 to 1000 μg Fe/kg body weight.

Going from `OCCn1nc(-c2ccccc2O)nc1-c1ccccc1O` [Example 1, 3,5-Bis(2-hydroxyphenyl)-1-(2-hydroxyethyl)-1H-[1,2,4]triazole] to `O=C(O)Cn1nc(-c2ccccc2O)nc1-c1ccccc1O` [Example 22, [3,5-Bis(2-hydroxyphenyl)-[1,2,4]triazol-1-yl]acetic acid], the “induced total iron excretion” value falls from 368 μg Fe/kg body weight to 147 μg Fe/kg body weight.

Compared with `CCOC(=O)Cn1nc(-c2ccccc2O)nc1-c1ccccc1O` [Example 2, Ethyl [3,5bis(2-hydroxyphenyl)-[1,2,4]triazol-1-yl]acetate], `CN(C)C(=O)Cn1nc(-c2ccccc2O)nc1-c1ccccc1O` [Example 33, 2-[3,5-Bis(2-hydroxyphenyl)-[1,2,4]triazol-1-yl]-N,N-dimethylacetamide] is higher in “induced total iron excretion” value: 91 μg Fe/kg body weight for the first, 282 μg Fe/kg body weight for the second.

First: O=C(O)c1ccc(-n2nc(-c3ccccc3O)nc2-c2ccccc2O)cc1 [Example 5, 4-[3,5-Bis(2-hydroxyphenyl)-[1,2,4]triazol-1-yl]benzoic acid]
Second: O=C(Cn1nc(-c2ccccc2O)nc1-c1ccccc1O)NCCO [Example 24, 2-[3,5bis(2-hydroxyphenyl)-(1,2,4]triazol-1-yl]-N-(2-hydroxyethyl)acetamide]
The “induced total iron excretion” value of the first is higher: 659 μg Fe/kg body weight for the first, 413 μg Fe/kg body weight for the second.

Compared with `COCCNC(=O)Cn1nc(-c2ccccc2O)nc1-c1ccccc1O` [Example 25, 2-[3,5-Bis(2-hydroxyphenyl)-[1,2,4]triazol-1-yl]-N-(2-methoxyethyl)acetamide], `O=C(Cn1nc(-c2ccccc2O)nc1-c1ccccc1O)NCCOCCO` [Example 29, 2-[3,5-Bis(2-hydroxyphenyl)-[1,2,4]triazol-1-yl]-N-[2-(2-hydroxyethoxy)ethyl]-acetamide] is higher in “induced total iron excretion” value: 337 μg Fe/kg body weight for the first, 359 μg Fe/kg body weight for the second.

First: O=C(Cn1nc(-c2ccccc2O)nc1-c1ccccc1O)NCC(O)CO (stereo not drawn) [Example 26, 2-[3,5-Bis(2-hydroxyphenyl)-[1,2,4]triazol-1-yl]-N-(2,3-dihydroxypropyl)-acetamide]
Second: O=C(Cn1nc(-c2ccccc2O)nc1-c1ccccc1O)NC(CO)CO [Example 31, 2-[3,5-Bis(2-hydroxyphenyl)-[1,2,4]triazol-1-yl]-N-(2-hydroxy-1-hydroxymethyl-ethyl)acetamide]
The “induced total iron excretion” value of the first is lower: 171 μg Fe/kg body weight for the first, 175 μg Fe/kg body weight for the second.

Going from `O=C(Cn1nc(-c2ccccc2O)nc1-c1ccccc1O)NCCN1CCOCC1` [Example 27, 2-[3,5-Bis(2-hydroxyphenyl)-[1,2,4]triazol-1-yl]-N-(2-morpholin-4-yl-ethyl)-acetamide] to `O=C(Cn1nc(-c2ccccc2O)nc1-c1ccccc1O)N1CCOCC1` [Example 34, 2-[3,5-Bis(2-hydroxyphenyl)-[1,2,4]triazol-1-yl]-l-morpholin-4-ylethanone], the “induced total iron excretion” value falls from 451 μg Fe/kg body weight to 204 μg Fe/kg body weight.

Going from `CN(CCO)C(=O)Cn1nc(-c2ccccc2O)nc1-c1ccccc1O` [Example 28, 2-[3,5-Bis(2-hydroxyphenyl)-[1,2,4]triazol-1-yl]-N-(2-hydroxyethyl)-N-methyl-acetamide] to `O=C(Cn1nc(-c2ccccc2O)nc1-c1ccccc1O)N(CCO)CCO` [Example 37, 2-[3,5-Bis(2-hydroxyphenyl)-[1,2,4]triazol-1-yl]-N,N-bis(2-hydroxyethyl)-acetamide], the “induced total iron excretion” value falls from 413 μg Fe/kg body weight to 301 μg Fe/kg body weight.

`O=C(Cn1nc(-c2ccccc2O)nc1-c1ccccc1O)NCCN(CCO)CCO` [Example 30, N-{2-[Bis(2-hydroxyethyl)amino]ethyl}-2-[3,5-bis(2-hydroxyphenyl)-[1,2,4]triazol-1-yl]acetamide] was tested, and the “induced total iron excretion” value was 447 μg Fe/kg body weight.

same assay, conditions: bile duct-cannulated fasted rat; dose 118 mg/kg; bile and urine collected for 24 h

`CN1CCN(C(=O)Cn2nc(-c3ccccc3O)nc2-c2ccccc2O)CC1` [Example 35, 2-[3,5-Bis(2-hydroxyphenyl)-[1,2,4]triazol-1-yl]-1-(4-methylpiperazin-1-yl)-ethanone] was tested, and the “induced total iron excretion” value was 293 μg Fe/kg body weight.

same assay, conditions: bile duct-cannulated fasted rat; dose 119 mg/kg; bile and urine collected for 24 h

In the case of `CN(C)CCN(C)C(=O)Cn1nc(-c2ccccc2O)nc1-c1ccccc1O` [Example 38, 2-[3,5-Bis(2-hydroxyphenyl)-[1,2,4]triazol-1-yl]-N-(2-dimethylaminoethyl)-N-methylacetamide], the “induced total iron excretion” value is reported as 970 μg Fe/kg body weight.

same assay, conditions: bile duct-cannulated fasted rat; dose 120 mg/kg; bile and urine collected for 24 h

For `Cc1ccc(O)c(-c2nc(-c3cc(C)ccc3O)n(-c3ccc(C(=O)O)cc3)n2)c1` [Example 21, 4-[3,5-Bis(2-hydroxy-5-methylphenyl)-[1,2,4]triazol-1-yl]benzoic acid], the “induced total iron excretion” value was 317 μg Fe/kg body weight.

same assay, conditions: bile duct-cannulated fasted rat; dose 133 mg/kg; bile and urine collected for 24 h

First: O=C(c1ccc(-n2nc(-c3ccccc3O)nc2-c2ccccc2O)cc1)N1CCOCC1 [Example 6, {4-[3,5-Bis(2-hydroxyphenyl)-[1,2,4]triazol-1-yl]-phenyl}morpholin-4-yl-methanone]
Second: O=C(O)c1ccc(-n2nc(-c3cc(Cl)ccc3O)nc2-c2cc(Cl)ccc2O)cc1 [Example 17, 4-[3,5-Bis(5-chloro-2-hydroxyphenyl)-[1,2,4]triazol-1-yl]benzoic acid]
The “induced total iron excretion” value of the first is higher: 968 μg Fe/kg body weight for the first, 203 μg Fe/kg body weight for the second.

system: iron-overloaded marmosets (Callithrix jacchus); assay: Test II: iron excretion induced in iron-overloaded marmosets (urine and feces iron); assay type: in vivo; details: iron-overloaded marmoset, p.o., dose 110.5 mg/kg; 48 h after administration, pretreatment subtracted; one line per animal
Method: Test II: Iron Excretion Induced by Compounds of Formula I or II [Method as Described in Bergeron et al., Blood 81:2166-2173 (1993)]
Adult (1 to 11 years old) marmosets (Callithrix jacchus) of both sexes, weighing 300 to 450 g are kept in pairs at 24-27° C. and a relative humidity of at least 60% in a 12-hour light-dark cycle. The animals are maintained on a pellet diet (No. 962 Nafag, Gossau, Switzerland) supplemented with fruit-vegetable mash, enriched with a vitamin-minerals concentrate (No. 9628 Nafag) and milk. Water is available ad libitum.
Iron-overloading procedure: The animals are iron-overloaded by 3 i.p. injections of iron (III) hydroxide polyisomaltose (Anaemex, Ciba-Geigy, Basel, Switzerland) at 14-day intervals (200 mg/kg twice and 100 mg/kg at the third injection). Prior to the first exposure to an iron chelator, the marmosets are rested at least 8 weeks.
Chelators administration: The test compounds are dispersed in 40 % aqueous Cremophor RH 40 (BASF, Ludwigshafen, Germany) for administration. The applied volume is 5 ml/kg body weight.
Iron excretion studies: The monkeys receive a low-iron diet 7 days before and throughout the experiments (4 days). The diet is prepared by mixing 628.9 g of a liquid diet for primates (Nafag No. 9694), 83 g of the corresponding lipid mixture (Nafag No. 9696), 131.3 g dietary fiber (Sanacell, Nafag) and 1.0 L of distilled water. […]

For `COCCNC(=O)Cn1nc(-c2ccccc2O)nc1-c1ccccc1O` [Example 25, 2-[3,5-Bis(2-hydroxyphenyl)-[1,2,4]triazol-1-yl]-N-(2-methoxyethyl)acetamide], the “induced iron in feces” value was 163.2 µg/kg.
